Assays:
[1] = biological target: T1, biotinylated truncated STAT6 (123-632)-avi (Homo sapiens, UniProt P42226); assay: biochemical
T1 sequence (P42226 123-632 limits assumed): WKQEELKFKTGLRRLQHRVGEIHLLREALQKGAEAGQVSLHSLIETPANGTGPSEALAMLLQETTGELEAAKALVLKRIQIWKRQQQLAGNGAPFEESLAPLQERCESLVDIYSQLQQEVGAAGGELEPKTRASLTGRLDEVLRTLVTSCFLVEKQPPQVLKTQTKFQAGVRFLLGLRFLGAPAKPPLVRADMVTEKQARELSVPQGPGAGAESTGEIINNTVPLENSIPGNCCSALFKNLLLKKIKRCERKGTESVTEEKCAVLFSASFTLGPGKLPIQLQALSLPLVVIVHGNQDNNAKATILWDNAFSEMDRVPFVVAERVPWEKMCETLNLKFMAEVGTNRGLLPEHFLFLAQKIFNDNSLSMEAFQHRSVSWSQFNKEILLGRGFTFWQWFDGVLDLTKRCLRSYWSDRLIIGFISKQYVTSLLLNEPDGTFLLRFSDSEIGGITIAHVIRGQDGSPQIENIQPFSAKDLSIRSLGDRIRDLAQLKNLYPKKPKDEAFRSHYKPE

STAT6 [2] = biological target: T2, STAT6 (Homo sapiens, UniProt P42226); assay: Phosphorylated STAT6 (pSTAT6) flow cytometry assay in human PBMC, IL-4 stimulated; assay type: cell-based; parameters: endogenous in cells; host or cells: human PBMC (CD19+ B cells), IL-4 stimulated; settings: 1 hour compound, 1 ng/ml IL-4 15 minutes, pSTAT6 in CD19+ B cells, read-out: STAT6 IL4 pSTAT6 assay in PBMC: Average IC50
T2 sequence (P42226 1-847): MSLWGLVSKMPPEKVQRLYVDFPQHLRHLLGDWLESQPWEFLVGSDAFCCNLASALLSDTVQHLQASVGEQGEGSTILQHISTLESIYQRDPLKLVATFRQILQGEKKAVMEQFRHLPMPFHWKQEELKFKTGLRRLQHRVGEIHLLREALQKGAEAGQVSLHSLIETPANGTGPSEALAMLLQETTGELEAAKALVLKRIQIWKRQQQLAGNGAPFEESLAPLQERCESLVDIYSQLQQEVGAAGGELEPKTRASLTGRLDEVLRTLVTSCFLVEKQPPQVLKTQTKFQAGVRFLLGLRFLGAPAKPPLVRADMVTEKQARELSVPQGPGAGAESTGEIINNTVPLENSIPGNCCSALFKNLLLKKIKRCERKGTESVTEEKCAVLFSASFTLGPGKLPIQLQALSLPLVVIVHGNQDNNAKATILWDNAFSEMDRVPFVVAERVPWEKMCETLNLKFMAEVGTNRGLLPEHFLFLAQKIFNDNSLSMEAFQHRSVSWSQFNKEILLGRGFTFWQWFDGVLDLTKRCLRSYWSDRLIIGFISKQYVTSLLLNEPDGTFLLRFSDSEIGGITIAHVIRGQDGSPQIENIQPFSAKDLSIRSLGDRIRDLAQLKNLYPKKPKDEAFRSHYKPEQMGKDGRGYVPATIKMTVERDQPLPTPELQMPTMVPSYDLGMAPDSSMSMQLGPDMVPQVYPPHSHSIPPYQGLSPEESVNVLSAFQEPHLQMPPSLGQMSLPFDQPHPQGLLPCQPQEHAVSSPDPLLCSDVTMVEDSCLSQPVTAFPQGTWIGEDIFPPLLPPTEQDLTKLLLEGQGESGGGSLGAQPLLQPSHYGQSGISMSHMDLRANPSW
Description: Example 2. Phosphorylated STAT6 (pSTAT6) Flow Cytometry Assay in Human PBMC
Phosphorylation of STAT6 in human PBMC was quantitatively measured using flow cytometry technology. Human PBMC were seeded in 96-well plates with a density of 0.3 to 0.5 million cells per well in 100 μl fresh media. Compounds were then added to the assay plates with a final top concentration of up to […] in a 1:3 dilution series with total of 9 doses. The assay plates were incubated for 1 hour at 37° C. under 5% CO2. The cells were then stimulated with 1 ng/ml of IL-4 (R&D Systems, Cat #6507-IL) for 15 minutes, followed by fixation for 30 minutes at 4° C. Cells were spun down at 350 g for 5 minutes. The supernatant was removed and cells were washed once with FACS buffer. Cells were permeabilized with 90% MeOH/H2O for 30 minutes at 4° C., followed by one wash with FACS buffer. Non-specific binding were blocked with human Fc for 1 hour at 4° C., followed by one wash with FACS buffer. AF488 conjugated pSTAT6 antibody (BD Biosciences, Cat #612600, 1:100 dilution) and PE conjugated CD19 antibody (BD Biosciences, Cat #341103, 1:50 dilution) diluted in 100 μl FACS buffer was added to each well with overnight incubation at 4° C. Cells were then washed once with FACS buffer and resuspended in 200 μl of FACS buffer for flow cytometry to quantify pSTAT6 in CD19+ B cells. The data was analyzed by GraphPad Prism and the dose dependent pSTAT6 inhibition was fit using the four-parameter inhibitor vs. response nonlinear regression.

STAT6 [3] = biological target: T2, STAT6; assay: Phosphorylated STAT6 (pSTAT6) flow cytometry assay in human A549 cells; assay type: cell-based; parameters: endogenous in cells; settings: read-out: STAT6 IL4 pSTAT6 assay in A549 cells: Average IC50
Description: Example 3. Phosphorylated STAT6 (pSTAT6) Flow Cytometry Assay in Human A549 Cells
Phosphorylation of STAT6 in human A549 cells was quantitatively measured using flow cytometry technology.

| SMILES | IC50 [1] [µM] | IC50 (STAT6 [2]) [µM] | IC50 (STAT6 [3]) [µM] |
| --- | --- | --- | --- |
| CN(C)C(=O)c1ccc(C2=CCCN(C(=O)CCn3ccnn3)C2)cc1 [Compound I-288] | 1 to 10 | > 100 |  |
| CN(C)C(=O)c1cc2cc(C3CCN(C(=O)CCn4ccnn4)C3)ccc2o1 (stereo not drawn) [Compound I-303] | 10 to 100 | > 100 |  |
| CN(C)C(=O)c1cc2cc(NC(=O)CCn3ccnn3)ccc2o1 [Compound I-262] | 10 to 100 | > 100 |  |
| O=C(CCn1ccnn1)N1CCC[C@H](c2ccc(-n3ccccc3=O)c(F)c2)C1 (single isomer, unassigned) [Compound I-1294] | 10 to 100 |  |  |
| CN(CC1CCN(c2ccc(-n3ccccc3=O)cc2F)CC1)C(=O)c1ccc(OC(F)F)cc1 [Compound I-1273] | 10 to 100 |  |  |
| CN(C)C(=O)c1ccc(C2=CCCN(C(=O)CC3Oc4ccccc4NC3=O)C2)c(OC(F)(F)F)c1 (stereo not drawn) [Compound I-1298] | 10 to 100 |  |  |
| Cc1cscc1-c1cc(CO)ccc1C(=O)N(C)CC1CCN(c2ccc(-n3ccccc3=O)cc2F)CC1 [Compound I-131] | 10 to 100 | > 100 |  |
| O=C(CCn1ccnn1)N1CCC[C@@H](c2ccc(-n3ccccc3=O)c(F)c2)C1 (single isomer, unassigned) [Compound I-1293] | 10 to 100 |  |  |
| CN(C)C(=O)c1cc2cc(NC(=O)CCCn3ccnn3)ccc2o1 [Compound I-258] | 10 to 100 | > 100 |  |
| CN(C)C(=O)c1cc2c([nH]1)CN(C1CCCN(C(=O)CCn3ccnn3)C1)CC2 (stereo not drawn) [Compound I-1297] | 10 to 100 |  |  |
| CNC(=O)c1ccc2c(c1)nc(-c1cccn1C)n2-c1ccccc1OC(F)F [Compound I-1272] | 10 to 100 |  |  |
| COc1cc(C(=O)N(C)C)ccc1C1=CCCN(C(=O)CCn2ccnn2)C1 [Compound I-260] | 1 to 10 | > 100 |  |
| CN(CC1CCN(c2ccc(-n3ccccc3=O)cc2F)CC1)C(=O)c1ccc(CO)cc1-c1ccsc1 [Compound I-164] | 1 to 10 | > 100 |  |
| COC(=O)COc1cc(C2=CCCN(C(=O)CCn3ccnn3)C2)ccc1C(=O)N(C)C [Compound I-250] | 10 to 100 | > 100 |  |
| CNC(=O)c1ccc2c(c1)nc(-c1nc3ccc(F)cc3[nH]1)n2Cc1ccc(CN2CCOCC2)o1 [Compound I-1271] | 10 to 100 |  |  |
| Cn1cccc(-c2ccc([C@H]3CCCN(C(=O)CCn4ccnn4)C3)cc2F)c1=O (single isomer, unassigned) [Compound I-7] | 10 to 100 | > 100 |  |
| CN1CCN(c2ccc(C3=CCCN(C(=O)CCn4ccnn4)C3)cc2Cl)CC1=O [Compound I-6] | 10 to 100 | 10 to 100 |  |
| CN(C)C(=O)c1cnc(-c2ccc(NC(=O)CCn3ccnn3)cc2)[nH]1 [Compound I-1295] | 10 to 100 |  |  |

| SMILES | IC50 [1] [µM] | IC50 (STAT6 [2]) [µM] | IC50 (STAT6 [3]) [µM] |
| --- | --- | --- | --- |
| CN(C)C(=O)c1ccc(C2=CCCN(C(=O)CC3CNc4ccccc4O3)C2)c(C#N)c1 (stereo not drawn) [Compound I-223] | 10 to 100 | > 100 |  |
| CN(CC1CCN(c2ccc(-n3ccccc3=O)cc2F)CC1)C(Cc1cccnn1)c1ccc(CO)cc1 (stereo not drawn) [Compound I-121] | > 100 | > 100 |  |
| O=C(CCn1ccnn1)N1CCC=C(c2ccc(-n3ccccc3=O)cc2)C1 [Compound I-1625] | 1 to 10 |  |  |
| Cn1cccc(-c2ccc([C@@H]3CCCN(C(=O)CCn4ccnn4)C3)cc2F)c1=O (single isomer, unassigned) [Compound I-320] | 10 to 100 | > 100 |  |
| CCc1ccc(-c2cc(C(=O)N3Cc4cnn(CC)c4C3)cc3cc(-c4cccc(C(=O)O)c4C)n(CC4CC4)c23)c(C)n1 [Compound I-1240] | 1 to 10 |  |  |
| COc1ccccc1-c1cc(Cc2ccccn2)c(F)c(C2=CCCN(C(=O)CCn3ccnn3)C2)c1 [Compound I-1102] | 0.1 to 1 |  | 0.1 to 1 |
| CN(C)C(=O)c1cc2ccc(C3CCCCN(C(=O)Nc4cccc(C(N)=O)c4)C3)c(F)c2[nH]1 (stereo not drawn) [Compound I-1325] | 10 to 100 |  |  |
| CN(CC1CCN(c2ccc(-n3ccccc3=O)cc2)CC1)C(=O)c1ccc(CO)cc1 [Compound I-183] | 10 to 100 | > 100 |  |
| CN(C)C(=O)c1cc2ccc(-c3cnc(CC(=O)Nc4cccc(C(N)=O)c4)s3)c(F)c2[nH]1 [Compound I-1323] | 0.1 to 1 |  |  |
| CN(C)C(=O)c1ccc(N2CCC(CN(C)C(=O)c3ccc(CO)cc3)CC2)c(F)c1 [Compound I-238] | 10 to 100 | > 100 |  |
| CN(C)C(=O)c1ccc2ccc(C3=CCCN(C(=O)CCn4ccnn4)C3)cc2c1 [Compound I-242] | 10 to 100 | > 100 |  |
| CN(C)C(=O)c1ccc(C2=CCCN(C(=O)CCn3ccnn3)C2)cc1C(N)=O [Compound I-211] | 10 to 100 | > 100 |  |
| CCc1ccc(-c2cc(C(=O)N3Cc4cnn(CC)c4C3)cc3cc(-c4cc(C(=O)O)ccc4C)n(CC4CC4)c23)c(C)n1 [Compound I-1246] | 1 to 10 |  |  |
| COc1ccccc1-c1cc(-n2ccccc2=O)cc(F)c1N1CCC(CN(C)C(=O)c2ccc(CO)cc2)CC1 [Compound I-1296] | 10 to 100 |  |  |
| CN(C)C(=O)c1ccc(C2=CCCN(C(=O)CCn3ccnn3)C2)cc1O [Compound I-218] | 10 to 100 | > 100 |  |
| CN(C)C(=O)c1ccc(C2=CCCN(C(=O)CCn3ccnn3)C2)c(O)c1 [Compound I-253] | 1 to 10 | > 100 |  |
| CN(C)C(=O)c1ccc(C2=CCCN(C(=O)CCn3ccnn3)C2)cc1C#N [Compound I-230] | > 100 | > 100 |  |
| COc1ccccc1-c1cc(-c2cccc(C(=O)N(C)C)c2)c(F)c2[nH]c(C(=O)N(C)C)cc12 [Compound I-1583] | 1 to 10 |  |  |

Source: patent US20250213586A1, “STAT6 INHIBITORS AND USES THEREOF” (Kymera Therapeutics, Inc., priority 2024, published 2025)
